Assay results from US10905688B2, “Combinations comprising substituted imidazo[1,5-α]pyrazinones as PDE1 inhibitors” (H. Lundbeck A/S, priority 2016, dated 2021).

Key:
Assay type in all cases: biochemical
PDE9 = PDE9 (Homo sapiens (Human), UniProt O76083); assay: PDE9 inhibition assay, SPA with 3H-cAMP
Procedure: A PDE9 assay may for example, be performed as follows: The assay is performed in 60 μL samples containing a fixed amount of the relevant PDE enzyme (sufficient to convert 20-25% of the cyclic nucleotide substrate), a buffer (50 mM HEPES pH 7.6; 10 mM MgCl2; 0.02% Tween20), 0.1 mg/mi BSA, 225 pCi of ^3H-labelled cyclic nucleotide substrate, tritium labeled cAMP to a final concentration of 5 nM and varying amounts of inhibitors. Reactions are initiated by addition of the cyclic nucleotide substrate, and reactions are allowed to proceed for one hr at room temperature before being terminated through mixing with 15 μL 8 mg/mL yttrium silicate SPA beads (Amersham). The beads are allowed to settle for one hr in the dark before the plates are counted in a Wallac 1450 Microbeta counter.
In the context of the present invention the assay was performed in 60 μL assay buffer (50 mM HEPES pH 7.6; 10 mM MgCl2; 0.02% Tween20) containing enough PDE9 to convert 20-25% of 10 nM ^3H-cAMP and varying amounts of inhibitors. Following a 1 hr incubation the reactions were terminated by addition of 15 μL 8 mg/mL yttrium silicate SPA beads (Amersham). The beads were allowed to settle for one hr in the dark before the plates were counted in a Wallac 1450 Microbeta counter.

PDE1C = PDE1C (Homo sapiens (Human), UniProt Q14123); assay: PDE1 inhibition assay (PDE1C), SPA with tritium labelled cAMP
PDE1C, sequence (Q14123 whole entry): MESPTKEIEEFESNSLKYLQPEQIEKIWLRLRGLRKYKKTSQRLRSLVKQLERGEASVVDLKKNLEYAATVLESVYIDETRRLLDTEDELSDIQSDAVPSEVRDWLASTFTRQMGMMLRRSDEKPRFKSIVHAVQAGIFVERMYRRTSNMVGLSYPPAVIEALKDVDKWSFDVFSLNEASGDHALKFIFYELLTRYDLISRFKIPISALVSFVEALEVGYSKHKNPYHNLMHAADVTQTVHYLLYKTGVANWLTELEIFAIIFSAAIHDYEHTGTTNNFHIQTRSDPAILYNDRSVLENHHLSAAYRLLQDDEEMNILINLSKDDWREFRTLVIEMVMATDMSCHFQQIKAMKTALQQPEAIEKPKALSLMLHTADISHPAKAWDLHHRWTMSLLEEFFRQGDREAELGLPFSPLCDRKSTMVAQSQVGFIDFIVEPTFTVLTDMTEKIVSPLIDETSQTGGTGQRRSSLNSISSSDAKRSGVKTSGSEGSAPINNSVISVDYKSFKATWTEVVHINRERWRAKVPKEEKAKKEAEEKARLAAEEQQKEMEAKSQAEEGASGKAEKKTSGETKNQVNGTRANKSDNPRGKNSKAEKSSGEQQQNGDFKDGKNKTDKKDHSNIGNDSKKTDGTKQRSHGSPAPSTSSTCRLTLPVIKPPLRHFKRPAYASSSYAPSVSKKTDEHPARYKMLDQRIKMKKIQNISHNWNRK
Procedure: (§1) Reactions were initiated by addition of the cyclic nucleotide substrate, and reactions were allowed to proceed for 1 h at room temperature before being terminated through mixing with 20 μL (0.2 mg) yttrium silicate SPA beads (PerkinElmer). The beads were allowed to settle for 1 h in the dark before the plates were counted in a Wallac 1450 Microbeta counter.

PDE1B = PDE1B (Homo sapiens (Human), UniProt Q01064); assay: PDE1 inhibition assay (PDE1B), SPA with tritium labelled cAMP
PDE1B, sequence (Q01064 whole entry): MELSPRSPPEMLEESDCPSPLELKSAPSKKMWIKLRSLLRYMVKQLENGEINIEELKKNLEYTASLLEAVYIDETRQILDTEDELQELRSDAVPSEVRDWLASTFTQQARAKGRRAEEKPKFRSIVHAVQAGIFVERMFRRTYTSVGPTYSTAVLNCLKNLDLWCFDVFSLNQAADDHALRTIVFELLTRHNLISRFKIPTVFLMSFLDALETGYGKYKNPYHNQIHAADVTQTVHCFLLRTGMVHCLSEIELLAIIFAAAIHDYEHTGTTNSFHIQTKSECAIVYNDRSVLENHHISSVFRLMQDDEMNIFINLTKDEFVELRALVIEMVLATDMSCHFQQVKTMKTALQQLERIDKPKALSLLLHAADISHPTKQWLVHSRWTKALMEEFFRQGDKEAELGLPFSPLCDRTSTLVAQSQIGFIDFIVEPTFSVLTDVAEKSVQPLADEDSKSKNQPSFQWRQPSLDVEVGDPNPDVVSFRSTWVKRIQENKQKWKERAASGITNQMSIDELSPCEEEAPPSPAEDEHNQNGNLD
Procedure: as §1

PDE1A = PDE1A (Homo sapiens (Human), UniProt P54750); assay: PDE1 inhibition assay (PDE1A), SPA with tritium labelled cAMP; settings: for inhibition at 2 µM: read-out: PDE1A, % inhibition at 2 μM
PDE1A, sequence (P54750 whole entry): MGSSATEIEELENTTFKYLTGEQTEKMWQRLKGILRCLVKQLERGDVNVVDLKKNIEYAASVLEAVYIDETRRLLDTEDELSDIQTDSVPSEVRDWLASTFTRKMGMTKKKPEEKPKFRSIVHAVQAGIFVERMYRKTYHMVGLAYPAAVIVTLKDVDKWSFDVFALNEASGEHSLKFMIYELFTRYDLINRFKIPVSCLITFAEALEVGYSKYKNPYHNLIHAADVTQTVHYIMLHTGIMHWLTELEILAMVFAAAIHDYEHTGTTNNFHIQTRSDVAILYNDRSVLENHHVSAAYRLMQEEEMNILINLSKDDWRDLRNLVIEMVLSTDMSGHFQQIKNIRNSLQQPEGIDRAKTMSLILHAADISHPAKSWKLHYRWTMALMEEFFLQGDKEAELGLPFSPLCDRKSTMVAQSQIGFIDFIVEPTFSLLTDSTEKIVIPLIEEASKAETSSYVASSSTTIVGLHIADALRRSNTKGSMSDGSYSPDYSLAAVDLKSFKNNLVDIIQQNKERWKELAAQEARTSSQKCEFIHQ
Procedure: Reactions were initiated by addition of the cyclic nucleotide substrate, and reactions were allowed to proceed for 1 h at room temperature before being terminated through mixing with 20 μL (0.2 mg) yttrium silicate SPA beads (PerkinElmer).

PDE9, sequence (O76083 whole entry): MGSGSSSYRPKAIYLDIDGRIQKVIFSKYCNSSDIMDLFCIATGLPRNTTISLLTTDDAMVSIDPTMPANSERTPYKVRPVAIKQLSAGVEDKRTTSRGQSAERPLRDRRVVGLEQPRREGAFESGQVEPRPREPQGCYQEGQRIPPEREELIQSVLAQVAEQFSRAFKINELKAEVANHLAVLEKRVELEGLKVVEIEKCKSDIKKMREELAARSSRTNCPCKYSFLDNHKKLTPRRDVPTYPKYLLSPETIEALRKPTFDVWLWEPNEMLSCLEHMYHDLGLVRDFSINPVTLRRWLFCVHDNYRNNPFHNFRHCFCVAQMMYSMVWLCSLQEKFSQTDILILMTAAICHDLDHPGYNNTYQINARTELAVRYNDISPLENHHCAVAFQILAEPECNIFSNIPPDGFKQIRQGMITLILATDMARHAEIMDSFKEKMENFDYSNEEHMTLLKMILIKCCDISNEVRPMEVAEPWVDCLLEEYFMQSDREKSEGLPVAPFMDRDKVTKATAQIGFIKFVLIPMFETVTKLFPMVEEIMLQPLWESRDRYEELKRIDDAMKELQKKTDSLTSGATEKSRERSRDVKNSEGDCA

Row | % inhibition of PDE9 at 10 microM (PDE9) [%] | IC50 (PDE1C) [nM] | IC50 (PDE1B) [nM] | SMILES | further results
1 | −2 | 345 |  | Cc1cn2c([C@@H]3C[C@@H]3F)ncc2c(=O)n1Cc1cccc(F)c1 (single isomer, unassigned; isomer 1) [37, isomer 1] | 
2 | −1 |  |  | Cc1cn2c([C@@H]3C[C@H]3F)ncc2c(=O)n1Cc1cccc(F)c1 (single isomer, unassigned; isomer 1) [38, isomer 1] | 
3 | 9 | 27 | 134 | Cc1cn2c(N3CCC4OCC[C@H]43)ncc2c(=O)n1Cc1cccc(F)c1 (single isomer, unassigned; isomer 1) [99, isomer 1] | IC50 (PDE1A): 241 nM
4 | 13 | 55 |  | Cc1cn2c([C@H]3C[C@@H]3F)ncc2c(=O)n1Cc1cccc(F)c1 (single isomer, unassigned; isomer 2) [37, isomer 2] | 
5 | 2 | 153 |  | Cc1cn2c([C@H]3C[C@H]3F)ncc2c(=O)n1Cc1cccc(F)c1 (single isomer, unassigned; isomer 2) [38, isomer 2] | 
6 | 6 | 119 | 760 | Cc1cn2c(N3CCC4OCC[C@@H]43)ncc2c(=O)n1Cc1cccc(F)c1 (single isomer, unassigned; isomer 2) [99, isomer 2] | PDE1A, % inhibition at 10 μM (PDE1A; at 10 μM): 47%
7 |  |  | 3 | COc1ccc(Cn2c(C)cn3c([C@H]4CCO[C@@H]4C)ncc3c2=O)cc1 (single isomer, unassigned; isomer 3) [55, isomer 3] | 
8 |  |  |  | Cc1cn2c(C3CCOCC3)ncc2c(=O)n1Cc1cccc(C#N)c1 [Example 45, 3-((6-methyl-8-oxo-3-(tetrahydro-2H-pyran-4-yl)imidazo[1,5-a]pyrazin-7(8H)-yl)methyl)benzonitrile] | inhibition at 2 µM (PDE1A): 64%
9 |  |  |  | CCc1ccccc1Cn1c(C)cn2c(C3CCOCC3)ncc2c1=O [Example 49, 7-(2-ethylbenzyl)-6-methyl-3-(tetrahydro-2H-pyran-4-yl)imidazo[1,5-a]pyrazin-8(7H)-one] | inhibition at 2 µM (PDE1A): 44%
